Test results from PubChem BioAssay (NCI).
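A five-concentration, 48-hour dose response in 96-well plates underlies each endpoint, interpolated linearly between surrounding concentrations. At the TGI there is no net growth.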

Tests used:
Assay in all cases: NCI anticancer screen, dose series, 48 h
[1] = test system: CCRF-CEM leukemia
[2] = test system: COLO 205 colon
[3] = test system: HCC-2998 colon
[4] = test system: HCT-15 colon
[5] = test system: HOP-92 NSCLC
[6] = test system: HS 578T breast
[7] = test system: K-562 leukemia
[8] = test system: KM12 colon
[9] = test system: MCF7 breast
[10] = test system: OVCAR-4 ovarian
[11] = test system: RXF 393 renal
[12] = test system: SF-539 CNS
[13] = test system: SK-MEL-2 melanoma
[14] = test system: SNB-19 CNS
[15] = test system: IGROV1 ovarian
[16] = test system: LOX IMVI melanoma
[17] = test system: SNB-75 CNS

SMILES	TGI [1] [µM]	TGI [2] [µM]	TGI [3] [µM]	TGI [4] [µM]	TGI [5] [µM]	TGI [6] [µM]	TGI [7] [µM]	TGI [8] [µM]	TGI [9] [µM]	TGI [10] [µM]	TGI [11] [µM]	TGI [12] [µM]	TGI [13] [µM]	TGI [14] [µM]	TGI [15] [µM]	TGI [16] [µM]	TGI [17] [µM]
CC(C)C1=CC23CCC4C(C)(C(=O)O)CCCC4(C)C2CC1C1C(=O)N(c2ccc(N4C(=O)C5C6CC7C8(C)CCCC(C)(C(=O)O)C8CCC7(C=C6C(C)C)C5C4=O)cc2)C(=O)C13 (stereo not given)	19.4	10.8	16.4	27.2	28.5	30.2	> 100	15.2	13.5	25.1	24.7	22.4	26.7	18.8			
CNC(=O)Nn1c(SC)nc2ccccc21	> 100	> 100	> 100	> 100	> 100	> 100	> 100	> 100	> 100	> 100	> 100		> 100	> 100	> 100	> 100	
Cc1nn(C(=O)c2ccc(Cl)cc2)c2c1C(c1ccccc1)SC(N)=N2 (stereo not given)	> 10	> 10	> 10	> 10	> 10	> 10	> 10	> 10	> 10	> 10	> 10	> 10	> 10	> 10	> 10	> 10	> 10
Brc1ccc2[nH]cc([C@@H]3CN[C@@H](c4c[nH]c5ccc(Br)cc45)CN3)c2c1	5.41	3.69	11.6	24.8	7.57	29.6	3.74	7.06	11.6	17.7	24.5	24.9	27.8	24.3	16.6	3.38	12.5
CCOC(=O)c1sc2c(c1OC(=O)c1ccc(Cl)cc1Cl)c(=O)n(-c1ccccc1)c(=S)n2-c1ccccc1	> 100	35.4	> 74.6	38.6	26	> 100	> 100	> 42.3	> 100	> 100	> 100	> 100	18.6	> 100	> 40.9	> 81.1	> 100
CCOc1ccc(-n2c(=O)c3nn4c(=O)n(-c5ccc(OCC)cc5)c(=O)c4nn3c2=O)cc1		> 100	> 100	> 100	> 100	> 100	> 100	> 100	> 100	> 100	> 100	> 100	> 100	> 100	> 100	> 100	75.7
CCN(CC)CCC1CCCCN1CC(=O)N1c2ccccc2NC(=O)CC1C (stereo not given)	> 100	> 100	> 100	> 100	> 100	> 100	> 100	> 100	> 100	> 100	> 100	> 100	> 100	> 100	> 100	> 100	11.8
Cc1c(/C=N/NC(=S)Nc2ccc([N+](=O)[O-])cc2)c(=O)n(-c2ccccc2)n1C	> 100	> 100	> 100	49.4	25.5	42.2	> 100	51.1	50	34.7	24.8	30	30.5	31.8	25.9	33.3	26.3
N[C@@H]1c2c(Br)sc(Br)c2C(=O)[C@H]1Br	> 22.6	> 68	> 76.1	60.8	33	> 100	> 67	> 61.5	> 100	89.5	53.6	> 100	> 100	> 74.6	45.9	33.3	> 100
COc1ccc(-c2nc(SCC(=O)N/N=C/c3ccc([N+](=O)[O-])cc3)[nH]c2-c2ccc(OC)cc2)cc1	> 22.1	5.28	31.5	> 85.1	> 61.3	76.3	> 100	35.9	20.6	> 100	56.6	30.8	20.5	> 100	74.8	44.1	> 63.3
CN1CCN(Cn2nc(-c3ccccc3)n(/N=C/c3ccc(-c4ccc(Cl)cc4Cl)o3)c2=S)CC1	23.2		26.5	21.2	25.1	> 100	24.7	41.3	38.6	54.8	14	41	44.1		31.8	46.7	
CCc1nc2c(n1CC)C(=O)c1ccccc1C2=O	> 100	43.4	> 100	> 100	> 100	> 100	> 100	> 100	> 100	> 100	51	> 100		> 100	> 100		> 100
Oc1c(Nc2ccccc2)cc2c3c1N=NC=3CCN=2	93.9	> 100	> 100	> 100	> 100	> 100	> 100	> 100	69	> 100	> 100	> 100	> 100	> 100	> 100	46.6	> 100
C=CC[C@H](O)[C@@](NC(=O)OCc1ccccc1)(Sc1ccc(C)cc1)C(F)(F)F		39.1	> 100	> 100	> 100	82.8	> 100	> 100	> 100	> 100	53	29.7	75.8	> 100	24	16.9	
CO[C@@H]1C[C@H]2[C@@H]3CC[C@H]([C@@H](C)COC(C)=O)[C@@]3(C)CC[C@@H]2[C@@]2(C)CC[C@H]3C[C@]312	40.7	20.2	28.6	27	35.2	39.5	27.7	23.2	23.6	44.8	35.7	37.3		31.7	30.2	23.6	33.5
CCN(CC)CCOc1ccc(N2Cc3cc(OC)c(OC)cc3C2=O)cc1	> 100	> 100	> 100	> 100	> 100	> 100	> 100	> 100	> 100	> 100	> 100	> 100	> 100	> 100	> 100	> 100	
COc1cc(/C=C2\N=C(c3ccccc3)N(c3ccc4c(c3)Sc3cc(N5C(=O)/C(=C/c6cc(OC)c(OC)c(OC)c6)N=C5c5ccccc5)ccc3N4)C2=O)cc(OC)c1OC	57.3	47.4	50.6	> 100	40.6	88.1	48.4	> 100	37.1	36.9	46.1		36.5	39.8	32	52	52.5
C=CC(Br)(CBr)CCC1OC1(C)C (stereo not given)	> 100	36.2	33.1		28.2	37.6	> 100	30.9	29.9	30.5	21.4	33.9	30.6	32.7	26.7	17.8	32.3
O=C(Nn1c(-c2ccccc2)nc2ccccc2c1=O)c1ccc([N+](=O)[O-])cc1	> 100	> 100	> 100	> 100	> 100	> 100	> 100	> 100	> 100	> 100	> 100	> 100		> 100	> 100	> 100	> 100
Cc1ccc(OC2CC(n3cnc4c(=O)[nH]c(Br)nc43)OC2Oc2ccc(C)cc2)cc1 (stereo not given)	53.7	82.8	47.3	91.6	45.9	66.1	51.1	> 100	> 100	> 100	60.5	50.1	75.8	49	66.9	72	
N=C(N)SCCSC(=N)N		> 100	> 100	> 100	> 100	> 100	> 100	> 100	> 100	> 100	> 100			> 100	> 100	> 100	> 100
CC[C@H](C)[C@H](NC(=O)[C@H](Cc1ccc(O)cc1)NCC(F)(F)F)C(=O)OC(C)(C)C		18.4	15.8	34.2	18.8	31.5	27.2	18.7	19.4	13.3	17.7	21	13.9	15.8	16.4	17.5	17.5
CNc1cccc(-c2cc(=O)c3cc4c(cc3[nH]2)OCO4)c1	11	0.63	1.38	3.66	> 100	8.96	> 19	> 24.7	> 100	> 100	> 100	0.573	> 44.5	> 100	> 100	> 72.2	
O=C1NC(=S)NC1C(Cc1ccccc1)c1ccco1 (stereo not given)	> 100	> 100	> 100	> 100	> 100	> 100	> 100	> 100	> 100	> 100	> 100	> 100		> 100	> 100	> 100	> 100
Cc1ccc(NC(=O)C23CC4CC(CC(C4)C2)C3)c(C(=O)NNC(=O)c2ccc(Cl)cc2)c1	55.2	> 100	30.2	35.7	33.5	33.8	95	90.9	59.7	65.8	39.8	49.5		8.91	18.2	35.3	
COc1cc2c(OC)c3cc(C)oc(=O)c3c(O)c2c(O)c1-c1c(OC)cc2c(OC)c3cc(C)oc(=O)c3c(O)c2c1O	39.3		33.5	39.4	55.9	> 100	34.3	40.4	51.1	> 100	35.9	35.7	35.8	65.1	31.1	43.8	> 100
COCN1C(=O)[C@@H]2CCCN2C(=O)c2ccc(Cl)cc21		> 100	> 100	> 100	> 100	> 100	> 100	> 100	> 100	> 100	> 100		> 100	> 100	> 100	> 100	> 100
CCN1CCC(O)(/C=C/c2cccc(C)c2)C(C(=O)/C=C/c2cccc(C)c2)C1 (stereo not given)		4.67	2.96	6.29	7.56	4.97	> 29.8	3.27	6.44	13.6	3.57	5.4	5.56	15.4	4.12	5.02	7.69
